Experimental data published in patent publication EP0377642B1, “HERBICIDES FOR WEED CONTROL IN RICE” (E.I. DU PONT DE NEMOURS AND COMPANY, priority 1987, dated 1989).
Read-outs that look alike come from different tables or passages of the source.

How the values were obtained:
Assay type in all cases: in vivo
Cyperus iria [1] = assay: Field test with Bensulfuron methyl in direct seeded rice (Table 10); details: 10 = complete control
From the text: (§1) Methyl 2-[[[[(4-methoxy-6-methyl-1,3,5-triazin-2-yl)amino]carbonyl]amino]sulfonyl]benzoate (Compound 1) and mixtures thereof with other compounds were applied as a spray (using a hand sprayer) to rice (either transplanted or direct seeded) in several rice growing areas in Southeast Asia and in the U.S. Tables 1-28 contain the results of these tests and clearly exemplify the utility of this invention. The details of each application are included in the appropriate table. [drawing 2]

Marsilea crenata = assay: as above; details: 10 = complete control
From the text: as §1

Sphenoclea zeylanica [2] = assay: as above; details: 10 = complete control
From the text: as §1

direct seeded rice [3] = assay: Field test with Bensulfuron methyl in direct seeded rice, yield (Table 10)
From the text: as §1

direct seeded rice [4] = details: 4 GM.A.I./HA; for PHYTO at 2WAA: scale 0-10
From the text: as §1

Cyperus difformis [5] = assay: Field test applied at 7 DAS in direct seeded rice (Table 11); details: 4 GM.A.I./HA, scale 0-10
From the text: as §1

Sphenoclea zeylanica [6] = assay: as above; details: 4 GM.A.I./HA, scale 0-10
From the text: as §1

Cyperus iria [7] = assay: Field test applied at 18 DAS in direct seeded rice (Table 12); details: 4 GM.A.I./HA, scale 0-10
From the text: as §1

FIMBRISTYLIS MILIACEA [8] = assay: as above; details: 4 GM.A.I./HA, scale 0-10
From the text: as §1

Jussiaea linifolia = assay: as above; details: 4 GM.A.I./HA, scale 0-10
From the text: as §1

Sphenoclea zeylanica [9] = assay: as above; details: 4 GM.A.I./HA, scale 0-10
From the text: as §1

Cyperus iria [10] = assay: Field test applied at 25 DAS in direct seeded rice (Table 13); details: 4 GM.A.I./HA, scale 0-10
From the text: as §1

Sphenoclea zeylanica [11] = assay: as above; details: 4 GM.A.I./HA, scale 0-10
From the text: as §1

direct seeded rice [12] = assay: Field test applied 7 DAS in direct seeded rice in the Philippines, phytotoxicity (Table 14); details: 30 DAA
From the text: as §1

WEED [13] = assay: Field test applied 7 DAS in direct seeded rice in the Philippines, weed cover (Table 14); details: 47 DAA
From the text: as §1

[14] = test system: Barnyardgrass (Echinochloa crus-galli); assay: Field test applied 7 DAS in direct seeded rice in the Philippines, cover (Table 14); details: 47 DAA
From the text: as §1

SEDGE = assay: as above; details: 47 DAA
From the text: as §1

Cyperus difformis [15] = assay: Herbicidal efficacy with Bensulfuron methyl and 2,4-D in Thailand (Table 18); details: 4 GAI/HA; 13 days after treatment
From the text: as §1

Sphenoclea zeylanica [16] = assay: as above; details: 4 GAI/HA; 13 days after treatment
From the text: as §1

rice [17] = assay: as above; details: 4 GAI/HA; 13 days after treatment
From the text: as §1

Cuperus difformis = assay: Herbicidal efficacy with Bensulfuron methyl and 2,4-D in Thailand (Table 19); details: 4 GAI/HA; 13 days after treatment
From the text: as §1

Sphenoclea zeylanica [18] = assay: as above; details: 4 GAI/HA; 13 days after treatment
From the text: as §1

rice [19] = assay: as above; details: 4 GAI/HA; 13 days after treatment
From the text: as §1

Cuperus iria = assay: Herbicidal efficacy with Bensulfuron methyl and 2,4-D in Thailand (Table 20); details: 4 GAI/HA; 14 days after treatment
From the text: as §1

FIMBRISTYLIS MILIACEA [20] = assay: as above; details: 4 GAI/HA; 14 days after treatment
From the text: as §1

Ludwigia linifolia = assay: as above; details: 4 GAI/HA; 14 days after treatment
From the text: as §1

Sphenoclea zeylanica [21] = assay: as above; details: 4 GAI/HA; 14 days after treatment
From the text: as §1

rice [22] = assay: as above; details: 4 GAI/HA; 14 days after treatment
From the text: as §1

rice [23] = assay: Effects in combination with Bensulfuron Methyl and Thiobencarb or Pretilachlor on rice growth (Table 23); details: rate 2 g ai/ha; var. Koshihikari, applied 7 days after transplanting, rated 21 days after application
From the text: as §1

WEED [24] = assay: Effects in combination with Bensulfuron Methyl and Thiobencarb or Pretilachlor on weed control (Table 24); details: rate 2 g ai/ha, scale 0 to 10, treated at 1.0 leaf stage, evaluated four weeks later
From the text: as §1

WEED [25] = assay: Effects in combination with Bensulfuron Methyl and Thiobencarb or Pretilachlor on weed control (Table 25); details: rate 2 g ai/ha, scale 0 to 10, treated at 2.0 leaf stage, evaluated four weeks later
From the text: as §1

COC(=O)c1ccccc1S(=O)(=O)NC(=O)Nc1nc(C)nc(OC)n1 [Compound 1, Methyl 2-[[[[(4-methoxy-6-methyl-1,3,5-triazin-2-yl)amino]carbonyl]amino]sulfonyl]benzoate]
WEEDS CONTROL at 4 WAA CI (Cyperus iria [1]; 2 GAI/HA): 0
WEEDS CONTROL at 4 WAA CI (Cyperus iria [1]; 4 GAI/HA): 0
WEEDS CONTROL at 4 WAA MC (Marsilea crenata; 2 GAI/HA): 10
WEEDS CONTROL at 4 WAA MC (Marsilea crenata; 4 GAI/HA): 10
WEEDS CONTROL at 4 WAA SZ (Sphenoclea zeylanica [2]; 2 GAI/HA): 7.93
WEEDS CONTROL at 4 WAA SZ (Sphenoclea zeylanica [2]; 4 GAI/HA): 9.33
YIELD (direct seeded rice [3]; 2 GAI/HA): 3.62 TONS/HA
YIELD (direct seeded rice [3]; 4 GAI/HA): 3.62 TONS/HA
YIELD (direct seeded rice [4]; 7 DAS): 4.90 TONS/HA
PHYTO at 2WAA (direct seeded rice [4]; 7 DAS): 0
YIELD (direct seeded rice [4]; 18 DAS): 4.65 TONS/HA
PHYTO at 2WAA (direct seeded rice [4]; 18 DAS): 0
YIELD (direct seeded rice [4]; 25 DAS): 5.04 TONS/HA
PHYTO at 2WAA (direct seeded rice [4]; 25 DAS): 0
WEED CONTROL at 6 WAA CD (Cyperus difformis [5]): 10
WEED CONTROL at 6 WAA SZ (Sphenoclea zeylanica [6]): 10
WEED CONTROL at 6 WAA CI (Cyperus iria [7]): 0.33
WEED CONTROL at 6 WAA FM (FIMBRISTYLIS MILIACEA [8]): 0
WEED CONTROL at 6 WAA JL (Jussiaea linifolia): 7.67
WEED CONTROL at 6 WAA SZ (Sphenoclea zeylanica [9]): 6.33
WEED CONTROL at 6 WAA CI (Cyperus iria [10]): 0
WEED CONTROL at 6 WAA SZ (Sphenoclea zeylanica [11]): 9.53
PHYTO (1-9) (direct seeded rice [12]; 1.65 G AI/HA): 2
PHYTO (1-9) (direct seeded rice [12]; 2.40 G AI/HA): 2.3
PHYTO (1-9) (direct seeded rice [12]; 3.33 G AI/HA): 3.3
% WEED COVER (WEED [13]; 1.65 G AI/HA): 29%
% WEED COVER (WEED [13]; 2.40 G AI/HA): 35%
% WEED COVER (WEED [13]; 3.33 G AI/HA): 35%
% BYG COVER ([14]; 1.65 G AI/HA): 26%
% BYG COVER ([14]; 2.40 G AI/HA): 35%
% BYG COVER ([14]; 3.33 G AI/HA): 35%
% SEDGE COVER (SEDGE; 1.65 G AI/HA): 5%
% SEDGE COVER (SEDGE; 2.40 G AI/HA): 6%
% SEDGE COVER (SEDGE; 3.33 G AI/HA): 4%
% CONTROL OR INJURY CD (Cyperus difformis [15]): 100%
% CONTROL OR INJURY SZ (Sphenoclea zeylanica [16]): 98%
% CONTROL OR INJURY RICE (rice [17]): 0%
% CONTROL OR INJURY CD (Cuperus difformis): 100%
% CONTROL OR INJURY SZ (Sphenoclea zeylanica [18]): 93%
% CONTROL OR INJURY RICE (rice [19]): 0%
% CONTROL OR INJURY CI (Cuperus iria): 0%
% CONTROL OR INJURY FM (FIMBRISTYLIS MILIACEA [20]): 0%
% CONTROL OR INJURY LL (Ludwigia linifolia): 67%
% CONTROL OR INJURY SZ (Sphenoclea zeylanica [21]): 60%
% CONTROL OR INJURY RICE (rice [22]): 0%
CROP TOLERANCE DW (Dry weight relative to untreated check) (rice [23]): 73%
CROP TOLERANCE PH (Plant height relative to untreated check) (rice [23]): 86%
CROP TOLERANCE VA (Visual crop injury) (rice [23]): 3%
WEED CONTROL RATINGS CD (WEED [24]; Cyperus difformis): 10
WEED CONTROL RATINGS CS (WEED [24]; Cyperus serotinus): 1
WEED CONTROL RATINGS EO (WEED [24]; Echinochloa oryzicola): 1
WEED CONTROL RATINGS BL (WEED [24]; Lindernia pyxidaria): 10
WEED CONTROL RATINGS MV (WEED [24]; Monochoria vaginalis): 10
WEED CONTROL RATINGS SP (WEED [24]; Sagittaria pygmaea): 8
WEED CONTROL RATINGS SJ (WEED [24]; Scirpus juncoides): 7
WEED CONTROL RATINGS CD (WEED [25]; Cyperus difformis): 7
WEED CONTROL RATINGS CS (WEED [25]; Cyperus serotinus): 0
WEED CONTROL RATINGS EO (WEED [25]; Echinochloa oryzicola): 1
WEED CONTROL RATINGS BL (WEED [25]; Lindernia pyxidaria): 10
WEED CONTROL RATINGS MV (WEED [25]; Monochoria vaginalis): 10
WEED CONTROL RATINGS SP (WEED [25]; Sagittaria pygmaea): 8
WEED CONTROL RATINGS SJ (WEED [25]; Scirpus juncoides): 6
